In patent publication US20100298141A1, “SUBSTITUTED PYRIDINE N-OXIDE HERBICIDES” (E. I. DU PONT DE NEMOURS AND COMPANY, priority 2007, published 2010):

How the values were obtained:
[1] = system: barnyardgrass; test: Test A pre-/postemergence greenhouse test; format: in vivo, Echinochloa crus-galli; conditions: for Plant response rating, Barnyardgrass: 0 to 100 scale where 0 is no effect and 100 is complete control; for Barnyardgrass plant response rating: 0 to 100 scale
Outline: (§1)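 Herbicidal effect is a visual injury score given about ten days post-treatment by comparison with untreated controls. Preemergence plots received a directed spray onto sown loam–sand soil; postemergence plants, at the one- to two-leaf stage and 2–10 cm tall, were sprayed at the same time.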

[2] = system: crabgrass; test: Test A pre-/postemergence greenhouse test; format: in vivo, Digitaria sanguinalis; conditions: for Plant response rating, Crabgrass, Large: 0 to 100 scale where 0 is no effect and 100 is complete control; for Crabgrass, Large plant response rating: 0 to 100 scale
Outline: as §1

[3] = system: giant foxtail; test: Test A pre-/postemergence greenhouse test; format: in vivo, Setaria faberi; conditions: for Plant response rating, Foxtail, Giant: 0 to 100 scale where 0 is no effect and 100 is complete control; for Foxtail, Giant plant response rating: 0 to 100 scale
Outline: as §1

[4] = system: morningglory; test: Test A pre-/postemergence greenhouse test; format: in vivo, Ipomoea spp.; conditions: for Plant response rating, Morningglory: 0 to 100 scale where 0 is no effect and 100 is complete control; for Morningglory plant response rating: 0 to 100 scale
Outline: as §1

[5] = system: redroot pigweed; test: Test A pre-/postemergence greenhouse test; format: in vivo, Amaranthus retroflexus; conditions: for Plant response rating, Pigweed: 0 to 100 scale where 0 is no effect and 100 is complete control; for Pigweed plant response rating: 0 to 100 scale, 0 is no effect, 100 is complete control
Outline: as §1

[6] = system: velvetleaf; test: Test A pre-/postemergence greenhouse test; format: in vivo, Abutilon theophrasti; conditions: for Plant response rating, Velvetleaf: 0 to 100 scale where 0 is no effect and 100 is complete control; for Velvetleaf plant response rating: 0 to 100 scale
Outline: as §1

[7] = system: wheat; test: Test A pre-/postemergence greenhouse test; format: in vivo, Triticum aestivum; conditions: for Plant response rating, Wheat: 0 to 100 scale where 0 is no effect and 100 is complete control; for Wheat plant response rating: 0 to 100 scale
Outline: as §1

[8] = system: corn; test: Test A pre-/postemergence greenhouse test; format: in vivo, Zea mays; conditions: for Plant response rating, Corn: 0 to 100 scale where 0 is no effect and 100 is complete control; for Corn plant response rating: 0 to 100 scale
Outline: as §1

[9] = system: rice; test: Test C flooded paddy test; format: in vivo, Oryza sativa; conditions: Flood
Text: (§2) At time of treatment, test pots were flooded to 3 cm above the soil surface, treated by application of test compounds directly to the paddy water, and then maintained at that water depth for the duration of the test. Treated plants and controls were maintained in a greenhouse for 13 to 15 days, after which time all species were compared to controls and visually evaluated. […] A dash (-) response means no test result.

[10] = system: umbrella sedge; test: Test C flooded paddy test; format: in vivo, Cyperus difformis; conditions: Flood
Text: as §2

[11] = system: duck salad; test: Test C flooded paddy test; format: in vivo, Heteranthera limosa; conditions: Flood
Text: as §2

[12] = system: barnyardgrass; test: Test C flooded paddy test; format: in vivo, Echinochloa crus-galli; conditions: Flood
Text: as §2

[13] = Postemergence, 500 g ai/ha, 0 is no effect, 100 is complete control
[14] = Preemergence, 125 g ai/ha, 0 no effect, 100 complete control
[15] = 31 g ai/ha, scale 0 to 100 (0 no effect, 100 complete control)
[16] = 62 g ai/ha, scale 0 to 100, 0 no effect, 100 complete control, 13 to 15 days
[17] = 125 g ai/ha, scale 0 to 100, 0 no effect, 100 complete control, 13 to 15 days
[18] = 250 g ai/ha, scale 0 to 100, 0 no effect, 100 complete control, 13 to 15 days

Question: For `Cc1cc[n+]([O-])c(S(=O)(=O)C(Cl)c2c(C(F)(F)F)nn(CC(F)(F)F)c2Cl)c1` (centres unmarked) [Compound 56], which “Plant response rating, Barnyardgrass” value ([1]; Postemergence, 125 g ai/ha) is on record?
Answer: 0

Question: What about the “Barnyardgrass plant response rating” value [1, 13] of the same compound?
Answer: 50

Question: What about the “Barnyardgrass plant response rating” value [1, 14] of the same compound?
Answer: 0

Question: And the “Plant response rating, Barnyardgrass” value ([1]; Preemergence, 500 g ai/ha)?
Answer: 70

Question: What about the “Plant response rating, Crabgrass, Large” value ([2]; Postemergence, 125 g ai/ha) of the same compound?
Answer: 0

Question: And the “Crabgrass, Large plant response rating” value [2, 13]?
Answer: 50

Question: And the “Crabgrass, Large plant response rating” value [2, 14]?
Answer: 20

Question: And the “Plant response rating, Crabgrass, Large” value ([2]; Preemergence, 500 g ai/ha)?
Answer: 80

Question: What about the “Plant response rating, Foxtail, Giant” value ([3]; Postemergence, 125 g ai/ha) of the same compound?
Answer: 0

Question: What about the “Foxtail, Giant plant response rating” value [3, 13] of the same compound?
Answer: 50

Question: What about the “Foxtail, Giant plant response rating” value [3, 14] of the same compound?
Answer: 30

Question: What about the “Plant response rating, Foxtail, Giant” value ([3]; Preemergence, 500 g ai/ha) of the same compound?
Answer: 90

Question: And the “Plant response rating, Morningglory” value ([4]; Postemergence, 125 g ai/ha)?
Answer: 0

Question: What about the “Morningglory plant response rating” value [4, 13] of the same compound?
Answer: 10

Question: And the “Morningglory plant response rating” value [4, 14]?
Answer: 0

Question: What about the “Plant response rating, Morningglory” value ([4]; Preemergence, 500 g ai/ha) of the same compound?
Answer: 0

Question: What about the “Plant response rating, Pigweed” value ([5]; Postemergence, 125 g ai/ha) of the same compound?
Answer: 0

Question: And the “Pigweed plant response rating” value ([5]; Postemergence, 500 g ai/ha)?
Answer: 20

Question: And the “Plant response rating, Pigweed” value ([5]; Preemergence, 500 g ai/ha)?
Answer: 100

Question: And the “Plant response rating, Velvetleaf” value ([6]; Postemergence, 125 g ai/ha)?
Answer: 0

Question: And the “Velvetleaf plant response rating” value [6, 13]?
Answer: 0

Question: And the “Velvetleaf plant response rating” value [6, 14]?
Answer: 0

Question: What about the “Plant response rating, Velvetleaf” value ([6]; Preemergence, 500 g ai/ha) of the same compound?
Answer: 40

Question: What about the “Plant response rating, Wheat” value ([7]; Postemergence, 125 g ai/ha) of the same compound?
Answer: 0

Question: And the “Wheat plant response rating” value [7, 13]?
Answer: 0

Question: And the “Wheat plant response rating” value [7, 14]?
Answer: 0

Question: And the “Plant response rating, Wheat” value ([7]; Preemergence, 500 g ai/ha)?
Answer: 0

Question: And the “Plant response rating, Corn” value ([8]; Postemergence, 125 g ai/ha)?
Answer: 0

Question: What about the “Corn plant response rating” value [8, 13] of the same compound?
Answer: 0

Question: And the “Corn plant response rating” value [8, 14]?
Answer: 0

Question: What about the “Plant response rating, Corn” value ([8]; Preemergence, 500 g ai/ha) of the same compound?
Answer: 0

Question: And the “Plant response rating, Rice” value [9, 15]?
Answer: 0

Question: And the “Plant response rating, Rice” value [9, 16]?
Answer: 0

Question: What about the “Plant response rating, Rice” value [9, 17] of the same compound?
Answer: 0

Question: What about the “Plant response rating, Rice” value [9, 18] of the same compound?
Answer: 0

Question: And the “Plant response rating, Sedge, Umbrella” value [10, 15]?
Answer: 0

Question: And the “Plant response rating, Sedge, Umbrella” value [10, 17]?
Answer: 45

Question: And the “Plant response rating, Sedge, Umbrella” value [10, 18]?
Answer: 55

Question: What about the “Plant response rating, Ducksalad” value [11, 15] of the same compound?
Answer: 0

Question: What about the “Plant response rating, Ducksalad” value [11, 16] of the same compound?
Answer: 40

Question: And the “Plant response rating, Ducksalad” value [11, 17]?
Answer: 85

Question: What about the “Plant response rating, Ducksalad” value [11, 18] of the same compound?
Answer: 100

Question: And the “Plant response rating, Barnyardgrass” value [12, 15]?
Answer: 0

Question: And the “Plant response rating, Barnyardgrass” value [12, 16]?
Answer: 0

Question: What about the “Plant response rating, Barnyardgrass” value [12, 17] of the same compound?
Answer: 0

Question: What about the “Plant response rating, Barnyardgrass” value [12, 18] of the same compound?
Answer: 20

Question: What does the source list for `Cn1nc(C(F)(F)F)c(C[S+]([O-])c2c(F)ccc[n+]2[O-])c1Cl` (centres unmarked) [Compound 52]?
Answer: Plant response rating, Barnyardgrass ([1]; Postemergence, 125 g ai/ha): 40; Barnyardgrass plant response rating [1, 13]: 70; Barnyardgrass plant response rating [1, 14]: 10; Plant response rating, Barnyardgrass ([1]; Preemergence, 500 g ai/ha): 80; Plant response rating, Crabgrass, Large ([2]; Postemergence, 125 g ai/ha): 30; Crabgrass, Large plant response rating [2, 13]: 40; Crabgrass, Large plant response rating [2, 14]: 0; Plant response rating, Crabgrass, Large ([2]; Preemergence, 500 g ai/ha): 40; Plant response rating, Foxtail, Giant ([3]; Postemergence, 125 g ai/ha): 40; Foxtail, Giant plant response rating [3, 13]: 60; Foxtail, Giant plant response rating [3, 14]: 30; Plant response rating, Foxtail, Giant ([3]; Preemergence, 500 g ai/ha): 90; Plant response rating, Morningglory ([4]; Postemergence, 125 g ai/ha): 0; Morningglory plant response rating [4, 13]: 20; Morningglory plant response rating [4, 14]: 0; Plant response rating, Morningglory ([4]; Preemergence, 500 g ai/ha): 40; Plant response rating, Pigweed ([5]; Postemergence, 125 g ai/ha): 40; Pigweed plant response rating ([5]; Postemergence, 500 g ai/ha): 70; Plant response rating, Pigweed ([5]; Preemergence, 500 g ai/ha): 100; Plant response rating, Velvetleaf ([6]; Postemergence, 125 g ai/ha): 50; Velvetleaf plant response rating [6, 13]: 60; Velvetleaf plant response rating [6, 14]: 0; Plant response rating, Velvetleaf ([6]; Preemergence, 500 g ai/ha): 0; Plant response rating, Wheat ([7]; Postemergence, 125 g ai/ha): 0; Wheat plant response rating [7, 13]: 50; Wheat plant response rating [7, 14]: 0; Plant response rating, Wheat ([7]; Preemergence, 500 g ai/ha): 0; Plant response rating, Corn ([8]; Postemergence, 125 g ai/ha): 0; Corn plant response rating [8, 13]: 30; Corn plant response rating [8, 14]: 0; Plant response rating, Corn ([8]; Preemergence, 500 g ai/ha): 0; Plant response rating, Rice [9, 15]: 0; Plant response rating, Rice [9, 16]: 0; Plant response rating, Rice [9, 17]: 0; Plant response rating, Rice [9, 18]: 0; Plant response rating, Sedge, Umbrella [10, 15]: 0; Plant response rating, Sedge, Umbrella [10, 17]: 40; Plant response rating, Sedge, Umbrella [10, 18]: 85; Plant response rating, Ducksalad [11, 15]: 0; Plant response rating, Ducksalad [11, 16]: 0; Plant response rating, Ducksalad [11, 17]: 40; Plant response rating, Ducksalad [11, 18]: 60; Plant response rating, Barnyardgrass [12, 15]: 0; Plant response rating, Barnyardgrass [12, 16]: 0; Plant response rating, Barnyardgrass [12, 17]: 0; Plant response rating, Barnyardgrass [12, 18]: 0
